This assay deals with P388. As to the kind of experiment: Cytotoxicity against mouse P388 cells. Format: functional. The conditions noted are these: read-out: ED50 (the source's name).

≈ marks a conversion by molar mass, not a printed value.

Consider `C=C(C)[C@]12C[C@@H](C)[C@@]34O[C@](CCCCCCCCCCC)(O[C@@H]1[C@@H]3[C@@H]1O[C@]1(CO)[C@@H](O)[C@]1(O)C(=O)C(C)=C[C@H]14)O2` [MONTANIN], for which the EC50 is 0.06 µg/mL (≈ 0.107 µM).

In the case of `C=Cc1c(C)c(O)cc2c1CC[C@@H]1C(C)(C)[C@H](O)CC[C@@]21C` [SPRUCEANOL], the EC50 came out at 3.2 µg/mL (≈ 10.7 µM).

These data come from ChEMBL document CHEMBL1158660, “Potential anticancer agents. XIV. Isolation of spruceanol and montanin from Cunuria spruceana (Euphorbiaceae)” (1979).
